Values of other authors, collected in article PMC5571359, “Screening the Medicines for Malaria Venture Pathogen Box across Multiple Pathogens Reclassifies Starting Points for Open-Source Drug Discovery” (Antimicrobial Agents and Chemotherapy, 2017).
Like-named read-outs stand apart in the source and are kept apart here.

System: P. falciparum ABS
Settings: cited from earlier work; for EC50: ChEMBL Data; for IC50: read-out: Pf 3D7 Pbox IC50
[1] = TCMDC, read-out: TCMDC (ref 93) EX50
[2] = Pf 3D7, ref Pathogen Box supporting information
[3] = P. falciparum, read-out: TCMDC (ref 93) EX50
[4] = P. falciparum 3D7, ref PBox supporting information
[5] = NITD, read-out: NITD (ref 94) EC50
[6] = P. falciparum, read-out: NITD (ref 94) EC50

Row | SMILES | EC50 [1] | IC50 [2] | other results
1 | c1ccc2c(c1)CN(CC1CC1)CC1(CCN(Cc3c[nH]c4cnccc34)CC1)O2 [MMV023183] | 900 nM | 610 nM | –
2 | CS(=O)(=O)c1cccc(-c2cnc3[nH]cc(-c4ccc(CCC(=O)O)cc4)c3c2)c1 [MMV026020] | – | – | EC50 [3]: 630 nM; IC50 [4]: 500 nM
3 | CNC(=O)c1cc(S(=O)(=O)N2CCN(c3ccccn3)CC2)cs1 [MMV020136] | 670 nM | 1110 nM | –
4 | Cc1noc(C)c1C(=O)N1CCCC(c2[nH]c3c(C)cccc3c2-c2ccncc2)C1 (stereo not drawn) [MMV020623] | 840 nM | 940 nM | –
5 | CCn1cnc2c(Nc3cc(F)cc(F)c3)nc(C#N)nc21 [MMV676881] | – | – | IC50 [4]: 900 nM
6 | Cc1cc(Nc2ccncc2)n2nc(C)c(-c3ccccc3Cl)c2n1 [MMV016136] | 690 nM | 630 nM | –
7 | CCN(CC)CCCN1CCN(C(=O)c2cccc(-c3noc(C(F)(F)F)n3)c2)CC1 [MMV022236] | 150 nM | 190 nM | –
8 | COc1ccccc1C(C)NCC(=O)Nc1cc(C(F)(F)F)ccc1Cl (stereo not drawn) [MMV020321] | 780 nM | 1380 nM | –
9 | Cc1cc(NC(=O)c2ccc(S(=O)(=O)N(Cc3ccccc3)C(C)C)cc2)no1 [MMV007133] | 850 nM | 980 nM | EC50 [5]: 2690 nM
10 | CCC(NC(=O)c1ccccc1NC(=O)c1ccc(C)cc1)C(=O)OC (stereo not drawn) [MMV019551] | 760 nM | 160 nM | –
11 | CCc1cc(=O)n(C)c(SC(C)C(=O)Nc2ccc(F)cc2)n1 (stereo not drawn) [MMV688980] | – | – | EC50 [6]: 760 nM; IC50 [4]: 1970 nM
12 | Cc1ccc2cc(C3NC(=O)c4ccccc4N3)c(Cl)nc2c1 (stereo not drawn) [MMV019807] | 950 nM | 1660 nM | –
13 | O=C(c1ccc(NCCO)cc1)C1C[C@H]1c1ccc(Cl)cc1 (stereo partly drawn) [MMV676877] | – | – | IC50 [4]: 660 nM
14 | CC(=O)Nc1ccc(NC(=O)c2cc(-c3cc(Cl)ccc3O)[nH]n2)cc1 [MMV676380] | – | – | EC50 [3]: 180 nM; IC50 [4]: 350 nM
15 | Cc1cc(C)n(-c2ccc(NC(=O)C3CCN(Cc4cnc(C)s4)CC3)cc2)n1 [MMV007625] | – | 780 nM | EC50 [5]: 810 nM
16 | COc1ccc(CCN2CCC(NCc3cccc(N(C)C)c3)CC2)cc1 [MMV011511] | 1320 nM | 1200 nM | EC50 [5]: 810 nM
17 | O=C(Nc1cccc(-c2ccc(NCCCN3CCCC3)nc2)c1)c1ccccc1 [MMV023953] | 870 nM | 850 nM | –
18 | Cc1cc(Cl)c(S(=O)(=O)N2CCCC2)cc1OCC(=O)NC1CCCCC1 [MMV006833] | – | 300 nM | EC50 [5]: 100 nM
19 | O=C(C(Cc1c[nH]c2ccccc12)NS(=O)(=O)c1ccc(Cl)cc1)N1CCCCC1 (stereo not drawn) [MMV085210] | – | – | EC50 [6]: 720 nM; IC50 [4]: > 2000 nM

Row | SMILES | EC50 [1] | IC50 [2] | other results
20 | O=C(Nc1ccnc(-c2cccnc2)n1)c1cc(C(F)(F)F)cc(C(F)(F)F)c1 [MMV019838] | 830 nM | 1050 nM | –
21 | OCc1ccc(-c2cncc(Nc3cccc(Cl)c3)c2)cc1 [MMV026468] | – | – | EC50 [3]: 74 nM; IC50 [4]: 33.5 nM
22 | CCOc1ccccc1C(=O)Nc1cccc(-c2nc3ncccn3c2C)c1 [MMV019790] | 850 nM | 1270 nM | –
23 | COc1ccc(-c2cncc3ccc(C(=O)NCCCn4ccnc4)nc23)cc1 [MMV020670] | 750 nM | 1080 nM | –
24 | CN1CCN(c2nccc3[nH]c(-c4cccc(F)c4)cc23)CC1 [MMV393144] | – | – | IC50 [4]: 1460 nM
25 | O=C(NC1CC1)c1ccc(CSCc2ccccc2Cl)o1 [MMV007803] | – | 1420 nM | EC50 [5]: 500 nM
26 | Cc1ccc2[nH]c3c(NCCN(C)C)ncnc3c2c1 [MMV006372] | 870 nM | 790 nM | EC50 [5]: 170 nM
27 | Cc1cc2ccccc2n1CC(=O)N1CC(C(=O)N2CCCCC2)Oc2ccccc21 (stereo not drawn) [MMV020520] | 900 nM | 1080 nM | –
28 | COc1ccc(Cl)cc1NC(=O)CN(C)C(=O)c1cnn(-c2ccccc2)n1 [MMV020710] | 230 nM | 240 nM | –
29 | COc1ccccc1CNC(=O)c1cc(C2CC2)nc2c1cnn2C(C)C [MMV020517] | 1020 nM | 940 nM | –
30 | CC(C)C(C(=O)Nc1ccc(S(=O)(=O)N(C)C)cc1)c1ccc(Cl)cc1 (stereo not drawn) [MMV020391] | 940 nM | 930 nM | –
31 | FC(F)(F)c1cnc(Sc2nnc(-c3ccncc3)o2)c(Cl)c1 [MMV011765] | 270 nM | 270 nM | EC50 [5]: 1870 nM
32 | COc1ccc(C2CC(c3cccs3)=NN2C(=O)c2ccco2)cc1OC (stereo not drawn) [MMV019234] | 170 nM | 300 nM | –
33 | CC1CCCN(C(=O)C(C)Nc2cc(Cl)ccc2N2CCOCC2)C1 (stereo not drawn) [MMV020388] | 320 nM | 520 nM | –
34 | COc1cc2ncnc(NC3CCN(Cc4ccccc4)CC3)c2cc1OC [MMV006741] | – | 620 nM | EC50 [5]: 400 nM
35 | CCCS(=O)(=O)N1CCC(CO)(Cc2ccccc2C(F)(F)F)CC1 [MMV001059] | 890 nM | 1090 nM | EC50 [5]: 1250 nM; EC50 (St Jude, read-out: St JUDE (ref 95) EC50): 3370 nM
36 | CN1CCN(S(=O)(=O)c2ccc(-c3ccc4c(Nc5ccc6nn[nH]c6c5)ccnc4c3)cc2)CC1 [MMV687246] | – | – | IC50 [4]: 420 nM
37 | Cc1nn(C)cc1C(C)Nc1nncc(-c2ccc(C(F)(F)F)cc2)n1 (stereo not drawn) [MMV019993] | 250 nM | 120 nM | –
38 | CC(C)(C)CN1C(=O)C(c2ccccc2)(c2ccccc2)N=C1N [MMV026550] | – | – | EC50 [3]: 520 nM; IC50 [4]: 800 nM
